In USRE42890E1, “Furazanobenzimidazoles” (Basilea Pharmaceutica AG, priority 2003, dated 2011):

What follows are compounds tested on Jurkat (assay: MTS proliferation assay, Jurkat). Conditions: 72 h incubation, read-out: MTS proliferation assay IC 50 Jurkat.
Type: cell-based, human
Procedure, shortened: (§1)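 A 72 h exposure to compound (final 0.3–10 μM, four levels) was followed by 3 h MTS incubation and an A492 read.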

SMILES | IC50
Nc1nonc1-c1nc2ccccc2n1CC(=O)c1ccc(C(F)(F)F)cc1 [Example 43] | 0.1 to 1 µM
Nc1nonc1-c1nc2ccccc2n1CC(=O)c1ccc([N+](=O)[O-])cc1 [Example 49] | 0.1 to 1 µM
Nc1ccc(C(=O)Cn2c(-c3nonc3N)nc3ccccc32)cc1 [Example 50] | 0.01 to 0.1 µM

These compounds were tested on Jily (assay: MTS proliferation assay, Jily). Conditions: 72 h incubation, read-out: MTS proliferation assay IC 50 Jily.
Type: cell-based
Procedure, shortened: (§2)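 Proliferation is followed by MTS conversion, measured as absorbance at 492 nm. Cells are exposed for 72 h to four fixed compound concentrations (10 μM down to 0.3 μM) under 37° C, 7.5% CO2 culture conditions.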

SMILES | IC50
Nc1nonc1-c1nc2ccccc2n1CC(=O)c1ccc(C(F)(F)F)cc1 [Example 43] | 0.1 to 1 µM
Nc1nonc1-c1nc2ccccc2n1CC(=O)c1ccc([N+](=O)[O-])cc1 [Example 49] | 0.1 to 1 µM
Nc1ccc(C(=O)Cn2c(-c3nonc3N)nc3ccccc32)cc1 [Example 50] | 0.01 to 0.1 µM

The compounds below were run on HT1080 (assay: MTS proliferation assay, HT1080). Conditions: HT1080, 72 h incubation; read-out: MTS proliferation assay IC 50 HT1080.
Type: cell-based, human
Procedure, shortened: as §1

SMILES | IC50
Nc1nonc1-c1nc2ccccc2n1CC(=O)c1ccc(C(F)(F)F)cc1 [Example 43] | 0.1 to 1 µM
Nc1nonc1-c1nc2ccccc2n1CC(=O)c1ccc([N+](=O)[O-])cc1 [Example 49] | > 1 µM
Nc1ccc(C(=O)Cn2c(-c3nonc3N)nc3ccccc32)cc1 [Example 50] | 0.01 to 0.1 µM

These compounds were tested on HeLa (assay: MTS proliferation assay, HeLa). Conditions: 72 h incubation, read-out: MTS proliferation assay IC 50 HeLa.
Type: cell-based, human
Procedure, shortened: as §1

SMILES | IC50
Nc1nonc1-c1nc2ccccc2n1CC(=O)c1ccc(C(F)(F)F)cc1 [Example 43] | 0.1 to 1 µM
Nc1nonc1-c1nc2ccccc2n1CC(=O)c1ccc([N+](=O)[O-])cc1 [Example 49] | > 1 µM
Nc1ccc(C(=O)Cn2c(-c3nonc3N)nc3ccccc32)cc1 [Example 50] | 0.01 to 0.1 µM

Each compound was assayed on MRC5 (assay: MTS proliferation assay, MRC5). Conditions: MRC5, 72 h incubation; read-out: MTS proliferation assay IC 50 MRC5.
Type: cell-based
Procedure, shortened: as §2

SMILES | IC50
Nc1nonc1-c1nc2ccccc2n1CC(=O)c1ccc(C(F)(F)F)cc1 [Example 43] | 0.1 to 1 µM
Nc1nonc1-c1nc2ccccc2n1CC(=O)c1ccc([N+](=O)[O-])cc1 [Example 49] | > 1 µM
Nc1ccc(C(=O)Cn2c(-c3nonc3N)nc3ccccc32)cc1 [Example 50] | 0.01 to 0.1 µM

What follows are compounds tested on adherent cells or suspension cells (assay: Hoechst 33342 nuclear staining (fraction of apoptotic nuclei)). Conditions: H460, conc 0.01 μm.
Type: cell-based
Parameters: key: 0 relating to no activity; 1 relating to weak activity comprising less than 70% of the cells; score 2 relating to strong activity comprising more than 70% of the cells

SMILES | Hoechst 33342 nuclear staining score
Nc1nonc1-c1nc2ccccc2n1CC(=O)c1ccc([N+](=O)[O-])cc1 [Example 49] | 0
Nc1ccc(C(=O)Cn2c(-c3nonc3N)nc3ccccc32)cc1 [Example 50] | 1 (1 relating to weak activity comprising less than 70% of the cells)

Same assay, conditions: H460, conc 0.1 μm

SMILES | Hoechst 33342 nuclear staining score
Nc1nonc1-c1nc2ccccc2n1CC(=O)c1ccc([N+](=O)[O-])cc1 [Example 49] | 0
Nc1ccc(C(=O)Cn2c(-c3nonc3N)nc3ccccc32)cc1 [Example 50] | 2 (score 2 relating to strong activity comprising more than 70% of the cells)

Same assay, conditions: H460, conc 1 μm

SMILES | Hoechst 33342 nuclear staining score
Nc1nonc1-c1nc2ccccc2n1CC(=O)c1ccc([N+](=O)[O-])cc1 [Example 49] | 0
Nc1ccc(C(=O)Cn2c(-c3nonc3N)nc3ccccc32)cc1 [Example 50] | 2 (score 2 relating to strong activity comprising more than 70% of the cells)

Same assay, conditions: HeLa, conc 0.01 μm

SMILES | Hoechst 33342 nuclear staining score
Nc1nonc1-c1nc2ccccc2n1CC(=O)c1ccc(C(F)(F)F)cc1 [Example 43] | 0
Nc1nonc1-c1nc2ccccc2n1CC(=O)c1ccc([N+](=O)[O-])cc1 [Example 49] | 0
Nc1ccc(C(=O)Cn2c(-c3nonc3N)nc3ccccc32)cc1 [Example 50] | 0

Same assay, conditions: HeLa, conc 0.1 μm

SMILES | Hoechst 33342 nuclear staining score
Nc1nonc1-c1nc2ccccc2n1CC(=O)c1ccc(C(F)(F)F)cc1 [Example 43] | 0
Nc1nonc1-c1nc2ccccc2n1CC(=O)c1ccc([N+](=O)[O-])cc1 [Example 49] | 0
Nc1ccc(C(=O)Cn2c(-c3nonc3N)nc3ccccc32)cc1 [Example 50] | 2 (score 2 relating to strong activity comprising more than 70% of the cells)

Same assay, conditions: HeLa, conc 1 μm

SMILES | Hoechst 33342 nuclear staining score
Nc1nonc1-c1nc2ccccc2n1CC(=O)c1ccc(C(F)(F)F)cc1 [Example 43] | 1 (1 relating to weak activity comprising less than 70% of the cells)
Nc1nonc1-c1nc2ccccc2n1CC(=O)c1ccc([N+](=O)[O-])cc1 [Example 49] | 1 (1 relating to weak activity comprising less than 70% of the cells)
Nc1ccc(C(=O)Cn2c(-c3nonc3N)nc3ccccc32)cc1 [Example 50] | 2 (score 2 relating to strong activity comprising more than 70% of the cells)

Same assay, conditions: Jily, conc 0.01 μm

SMILES | Hoechst 33342 nuclear staining score
Nc1nonc1-c1nc2ccccc2n1CC(=O)c1ccc(C(F)(F)F)cc1 [Example 43] | 0
Nc1nonc1-c1nc2ccccc2n1CC(=O)c1ccc([N+](=O)[O-])cc1 [Example 49] | 0
Nc1ccc(C(=O)Cn2c(-c3nonc3N)nc3ccccc32)cc1 [Example 50] | 2 (score 2 relating to strong activity comprising more than 70% of the cells)

Same assay, conditions: Jily, conc 0.1 μm

SMILES | Hoechst 33342 nuclear staining score
Nc1nonc1-c1nc2ccccc2n1CC(=O)c1ccc(C(F)(F)F)cc1 [Example 43] | 0
Nc1nonc1-c1nc2ccccc2n1CC(=O)c1ccc([N+](=O)[O-])cc1 [Example 49] | 0
Nc1ccc(C(=O)Cn2c(-c3nonc3N)nc3ccccc32)cc1 [Example 50] | 2 (score 2 relating to strong activity comprising more than 70% of the cells)

Same assay, conditions: Jily, conc 1 μm

SMILES | Hoechst 33342 nuclear staining score
Nc1nonc1-c1nc2ccccc2n1CC(=O)c1ccc(C(F)(F)F)cc1 [Example 43] | 1 (1 relating to weak activity comprising less than 70% of the cells)
Nc1nonc1-c1nc2ccccc2n1CC(=O)c1ccc([N+](=O)[O-])cc1 [Example 49] | 1 (1 relating to weak activity comprising less than 70% of the cells)
Nc1ccc(C(=O)Cn2c(-c3nonc3N)nc3ccccc32)cc1 [Example 50] | 2 (score 2 relating to strong activity comprising more than 70% of the cells)

Same assay, conditions: Jurkat, conc 0.01 μm

SMILES | Hoechst 33342 nuclear staining score
Nc1nonc1-c1nc2ccccc2n1CC(=O)c1ccc(C(F)(F)F)cc1 [Example 43] | 0
Nc1nonc1-c1nc2ccccc2n1CC(=O)c1ccc([N+](=O)[O-])cc1 [Example 49] | 0
Nc1ccc(C(=O)Cn2c(-c3nonc3N)nc3ccccc32)cc1 [Example 50] | 2 (score 2 relating to strong activity comprising more than 70% of the cells)

Same assay, conditions: Jurkat, conc 0.1 μm

SMILES | Hoechst 33342 nuclear staining score
Nc1nonc1-c1nc2ccccc2n1CC(=O)c1ccc(C(F)(F)F)cc1 [Example 43] | 0
Nc1nonc1-c1nc2ccccc2n1CC(=O)c1ccc([N+](=O)[O-])cc1 [Example 49] | 0
Nc1ccc(C(=O)Cn2c(-c3nonc3N)nc3ccccc32)cc1 [Example 50] | 2 (score 2 relating to strong activity comprising more than 70% of the cells)

Same assay, conditions: Jurkat, conc 1 μm

SMILES | Hoechst 33342 nuclear staining score
Nc1nonc1-c1nc2ccccc2n1CC(=O)c1ccc(C(F)(F)F)cc1 [Example 43] | 2 (score 2 relating to strong activity comprising more than 70% of the cells)
Nc1nonc1-c1nc2ccccc2n1CC(=O)c1ccc([N+](=O)[O-])cc1 [Example 49] | 2 (score 2 relating to strong activity comprising more than 70% of the cells)
Nc1ccc(C(=O)Cn2c(-c3nonc3N)nc3ccccc32)cc1 [Example 50] | 2 (score 2 relating to strong activity comprising more than 70% of the cells)

Same assay, conditions: MRC5, conc 0.01 μm

SMILES | Hoechst 33342 nuclear staining score
Nc1nonc1-c1nc2ccccc2n1CC(=O)c1ccc(C(F)(F)F)cc1 [Example 43] | 0
Nc1nonc1-c1nc2ccccc2n1CC(=O)c1ccc([N+](=O)[O-])cc1 [Example 49] | 0
Nc1ccc(C(=O)Cn2c(-c3nonc3N)nc3ccccc32)cc1 [Example 50] | 0

Same assay, conditions: MRC5, conc 0.1 μm

SMILES | Hoechst 33342 nuclear staining score
Nc1nonc1-c1nc2ccccc2n1CC(=O)c1ccc(C(F)(F)F)cc1 [Example 43] | 0
Nc1nonc1-c1nc2ccccc2n1CC(=O)c1ccc([N+](=O)[O-])cc1 [Example 49] | 0
Nc1ccc(C(=O)Cn2c(-c3nonc3N)nc3ccccc32)cc1 [Example 50] | 2 (score 2 relating to strong activity comprising more than 70% of the cells)

Same assay, conditions: MRC5, conc 1 μm

SMILES | Hoechst 33342 nuclear staining score
Nc1nonc1-c1nc2ccccc2n1CC(=O)c1ccc(C(F)(F)F)cc1 [Example 43] | 1 (1 relating to weak activity comprising less than 70% of the cells)
Nc1nonc1-c1nc2ccccc2n1CC(=O)c1ccc([N+](=O)[O-])cc1 [Example 49] | 0
Nc1ccc(C(=O)Cn2c(-c3nonc3N)nc3ccccc32)cc1 [Example 50] | 2 (score 2 relating to strong activity comprising more than 70% of the cells)

Same assay, conditions: PBLs, conc 0.01 μm

SMILES | Hoechst 33342 nuclear staining score
Nc1nonc1-c1nc2ccccc2n1CC(=O)c1ccc(C(F)(F)F)cc1 [Example 43] | 0
Nc1nonc1-c1nc2ccccc2n1CC(=O)c1ccc([N+](=O)[O-])cc1 [Example 49] | 0
Nc1ccc(C(=O)Cn2c(-c3nonc3N)nc3ccccc32)cc1 [Example 50] | 0

Same assay, conditions: PBLs, conc 0.1 μm

SMILES | Hoechst 33342 nuclear staining score
Nc1nonc1-c1nc2ccccc2n1CC(=O)c1ccc(C(F)(F)F)cc1 [Example 43] | 0
Nc1nonc1-c1nc2ccccc2n1CC(=O)c1ccc([N+](=O)[O-])cc1 [Example 49] | 0
Nc1ccc(C(=O)Cn2c(-c3nonc3N)nc3ccccc32)cc1 [Example 50] | 0

Same assay, conditions: PBLs, conc 1 μm

SMILES | Hoechst 33342 nuclear staining score
Nc1nonc1-c1nc2ccccc2n1CC(=O)c1ccc(C(F)(F)F)cc1 [Example 43] | 0
Nc1nonc1-c1nc2ccccc2n1CC(=O)c1ccc([N+](=O)[O-])cc1 [Example 49] | 0
Nc1ccc(C(=O)Cn2c(-c3nonc3N)nc3ccccc32)cc1 [Example 50] | 0
